Assay results: ChEMBL document CHEMBL3045901, “Aryldiones incorporating a [1,4,5]oxadiazepane ring. Part 2: chemistry and biology of the cereal herbicide pinoxaden” (Pest Manag Sci, 2011)
Values after ≈ are worked out from the molar mass of the structure shown.

Experiments:
Triticum aestivum [1] = assay: Drug level in winter Triticum aestivum cv. Soisson (wheat) measured after 6 hr in presence of safener cloquintocet-mexyl; format: ADME, organism-based; conditions: in vivo
Triticum aestivum [2] = assay: Drug level in winter Triticum aestivum cv. Soisson (wheat) measured after 6 hr; format: ADME, organism-based; conditions: in vivo
Hordeum vulgare [3] = assay: Drug level in winter Hordeum vulgare cv. Manitou (barley) at 0.1 g/l measured after 6 hr in presence of safener cloquintocet-mexyl; format: ADME, organism-based; conditions: in vivo
Hordeum vulgare [4] = assay: Drug level in winter Hordeum vulgare cv. Manitou (barley) at 0.1 g/l measured after 6 hr; format: ADME, organism-based; conditions: in vivo
[5] = Aqueous hydrolysis of the compound at pH 9 at 20 degC; format: physicochemical; conditions: aqueous solution, read-out: DT50 (converted)
[6] = Aqueous hydrolysis of the compound at pH 4 at 20 degC; format: physicochemical; conditions: aqueous solution, read-out: DT50 (converted)
[7] = Aqueous hydrolysis of the compound at pH 5 at 20 degC; format: physicochemical; conditions: aqueous solution, read-out: DT50 (converted)
[8] = Aqueous hydrolysis of the compound at pH 7 at 20 degC; format: physicochemical; conditions: aqueous solution, read-out: DT50 (converted)
[9] = Lipophilicity, log P of the compound at 25 degC; format: physicochemical; conditions: octanol/water
[10] = Solubility in water at 25 degC; format: physicochemical
Avena fatua [11] = assay: Drug level in Avena fatua at 0.1 g/l measured after 6 hr in presence of safener cloquintocet-mexyl; format: ADME, organism-based; conditions: in vivo
Avena fatua [12] = assay: Drug level in Avena fatua at 0.1 g/l measured after 6 hr; format: ADME, organism-based; conditions: in vivo
Lolium perenne [13] = assay: Drug level in Lolium perenne (perennial ryegrass) measured at 0.1 g/l after 6 hr in presence of safener cloquintocet-mexyl; format: ADME, organism-based; conditions: in vivo
Lolium perenne [14] = assay: Drug level in Lolium perenne (perennial ryegrass) measured at 0.1 g/l after 6 hr; format: ADME, organism-based; conditions: in vivo
Hordeum vulgare [15] = assay: Drug metabolism in winter Hordeum vulgare cv. Manitou (barley) assessed as total inactive metabolites at 0.1 g/l measured after 16 hr; format: ADME, organism-based; conditions: in vivo

Q: What does the source list for CCc1cc(C)cc(CC)c1-c1c(OC(=O)C(C)(C)C)n2n(c1=O)CCOCC2 [PINOXADEN]?
A: Drug uptake (Triticum aestivum [1]): 0%; Drug uptake (Triticum aestivum [2]): 0%; Drug uptake (Hordeum vulgare [3]): 1.5%; Drug uptake (Hordeum vulgare [4]): 2.1%; half-life [5]: 0.3 days; half-life [6]: 24.1 days; half-life [7]: 25.3 days; half-life [8]: 14.9 days; logP [9]: 3.2; solubility [10]: 200 µg/mL (≈ 499 µM); Drug uptake (Avena fatua [11]): 0%; Drug uptake (Avena fatua [12]): 0%; Drug uptake (Lolium perenne [13]): 0%; Drug uptake (Lolium perenne [14]): 0%; Drug metabolism (Hordeum vulgare [15]): 49.6%
